Experimental data reported in ChEMBL document CHEMBL1201862, “PubChem BioAssay data set” (2004).
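Step 1: Grow cells in 96-well plates. Step 2: Expose to compound for 48 hours at 5 concentrations. Step 3: Interpolate endpoints linearly; if unreached, use highest concentration. GI50 is the concentration that inhibits growth by half.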 Active and inactive are the calls of the source. Cut-off read from the data, not from the text of the source: active = GI50 up to about 1.1 µM and inactive = higher.

Experiments:
Assay in all cases: growth of human tumour cells (NCI), 48 h
HCC 2998 = tested on: HCC 2998
SK-MEL-5 = tested on: SK-MEL-5
UO-31 = tested on: UO-31
K562 = tested on: K562
IGROV-1 = tested on: IGROV-1
NCI-H460 = tested on: NCI-H460
Hs-578T = tested on: Hs-578T
NCI-H522 = tested on: NCI-H522
RPMI-8226 = tested on: RPMI-8226
NCI/ADR-RES = tested on: NCI/ADR-RES
KM12 = tested on: KM12
SW-620 = tested on: SW-620
A498 = tested on: A498
OVCAR-4 = tested on: OVCAR-4
UACC-62 = tested on: UACC-62
HCT-15 = tested on: HCT-15
SF-295 = tested on: SF-295
CAKI-1 = tested on: CAKI-1
SF-539 = tested on: SF-539
HOP-92 = tested on: HOP-92

Structure (SMILES)	GI50 (HCC 2998)	GI50 (SK-MEL-5)	GI50 (UO-31)	GI50 (K562)	GI50 (IGROV-1)	GI50 (NCI-H460)	GI50 (Hs-578T)	GI50 (NCI-H522)	GI50 (RPMI-8226)	GI50 (NCI/ADR-RES)	GI50 (KM12)	GI50 (SW-620)	GI50 (A498)	GI50 (OVCAR-4)	GI50 (UACC-62)	GI50 (HCT-15) [µM]	GI50 (SF-295)	GI50 (CAKI-1)	GI50 (SF-539)	GI50 (HOP-92)
CCC1NC(=O)C(NC(=O)c2ncccc2O)C(C)OC(=O)C(c2ccccc2)NC(=O)C2CC(=O)CCN2C(=O)C(Cc2ccccc2)N(C)C(=O)C2CCCN2C1=O (stereo not given)	> 100 µM (inactive)	> 100 µM (inactive)	> 100 µM (inactive)	> 100 µM (inactive)	> 100 µM (inactive)	> 100 µM (inactive)	> 100 µM (inactive)	> 100 µM (inactive)	> 100 µM (inactive)	> 100 µM (inactive)	> 100 µM (inactive)	> 100 µM (inactive)	> 100 µM (inactive)	57.1 µM (inactive)	> 100 µM (inactive)	> 100	> 100 µM (inactive)	> 100 µM (inactive)	> 100 µM (inactive)	> 100 µM (inactive)
O=c1cc(-c2ccccc2)oc2c1ccc1nc3ccccc3c(O)c12	62.8 µM (inactive)	47.6 µM (inactive)	80.2 µM (inactive)	> 100 µM (inactive)	> 100 µM (inactive)	14.7 µM (inactive)	59.4 µM (inactive)	39.9 µM (inactive)	51.1 µM (inactive)	42.4 µM (inactive)	16.7 µM (inactive)	> 100 µM (inactive)	27.5 µM (inactive)	34.8 µM (inactive)	67.1 µM (inactive)	42.3	49.4 µM (inactive)	60.7 µM (inactive)	33 µM (inactive)	> 100 µM (inactive)
O=C1CCC(CCc2nc3ccccc3[nH]2)(c2ccccc2)C(=O)N1 (stereo not given)	> 100 µM (inactive)	> 100 µM (inactive)	20.2 µM (inactive)	64 µM (inactive)	64 µM (inactive)	> 100 µM (inactive)	29.7 µM (inactive)	47.4 µM (inactive)	> 100 µM (inactive)	> 100 µM (inactive)	> 100 µM (inactive)	> 100 µM (inactive)	> 100 µM (inactive)	> 100 µM (inactive)	> 100 µM (inactive)	> 100	> 100 µM (inactive)	> 100 µM (inactive)	> 100 µM (inactive)	83.6 µM (inactive)
O=[N+]([O-])c1ccc(-c2ccc([C@H]3CC(c4cc(F)c(Cl)cc4Cl)=NN3)o2)cc1	14.3 µM (inactive)	7.83 µM (inactive)	69.3 µM (inactive)	22.9 µM (inactive)	38.7 µM (inactive)	0.435 µM (active)	> 100 µM (inactive)	16.6 µM (inactive)	20.9 µM (inactive)	21.6 µM (inactive)	0.625 µM (active)	23.6 µM (inactive)	35.5 µM (inactive)	40.2 µM (inactive)	21.3 µM (inactive)	1.52	44.2 µM (inactive)	25.9 µM (inactive)	5.38 µM (inactive)	26.6 µM (inactive)
